Holding throughout (experiment): In vitro antibacterial activity, broth microdilution MIC90
Holding throughout (format): cell-based
(In general: Broth dilution looks for growth in wells or tubes with falling amounts of substance.)

The subject of one assay is Enterococcus faecalis. The essentials:
(§1)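 MIC90 read out by broth microdilution following CLSI standards. Test material ranged from 0.063 to 128 μg/mL final, DMSO at 2.5% (V/V).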

Assay [1] has as its system Staphylococcus epidermidis. The essentials:
as §1

The subject of assay [2] is Linezolid and Vancomycin Resistant Enterococcus faecium (strain 11). The essentials:
as §1

Assay [3] has as its system Vancomycin Resistant Enterococcus faecalis. The essentials: as §1
A further assay concerns Enterococcus faecium. The essentials:
as §1

In the next assay the test system is Staphylococcus aureus. The essentials: as §1
For assay [4], the system named is Linezolid and Vancomycin Resistant Enterococcus faecalis. The essentials: as §1
In assay [5] the test system is Methicillin Resistant Staphylococcus epidermidis. The essentials: as §1
Assay [6] relates to Linezolid and Vancomycin Resistant Enterococcus faecium (strain 10). The essentials: as §1
The subject of a further assay is Moraxella catarrhalis. The essentials:
as §1

Assay [7] has as its system Vancomycin Resistant Enterococcus faecium. The essentials: as §1
The subject of assay [8] is Methicillin Resistant Staphylococcus aureus. The essentials:
as §1

Where [9] appears, read: Enterococcus faecalis, strain 5, E. faecalis, read-out: MIC90.
[10] abbreviates: Staphylococcus epidermidis, strain 3, S. epidermidis, read-out: MIC90.
Setting [11] is: Enterococcus faecium, strain 11, E. faecium VanA LR, read-out: MIC90.
The mark [12] stands for this setting: Enterococcus faecalis, strain 6, E. faecalis VanA, read-out: MIC90.
[13] abbreviates: Enterococcus faecium, strain 8, E. faecium, read-out: MIC90.
The mark [14] stands for this setting: Staphylococcus aureus, strain 1, S. aureus, read-out: MIC90.
Where [15] appears, read: Enterococcus faecalis, strain 7, E. faecalis VanA LR, read-out: MIC90.
Setting [16] is: Staphylococcus epidermidis, strain 4, S. epidermidis MR, read-out: MIC90.
Setting [17] is: Enterococcus faecium, strain 10, E. faecium VanA LR, read-out: MIC90.
The mark [18] stands for this setting: Moraxella catarrhalis, strain 12, M. catarrhalis, read-out: MIC90.
[19] abbreviates: Enterococcus faecium, strain 9, E. faecium VanA, read-out: MIC90.
The mark [20] stands for this setting: Staphylococcus aureus, strain 2, S. aureus MR, read-out: MIC90.

Converted amounts (≈) assume the structure as drawn. Like-named read-outs stand apart in the source and are kept apart here.

For orientation: MIC90 means the lowest concentration that inhibits either 90% of growth or 90% of the strains tested, depending on the study.

For `CC(=O)NC[C@H]1CN(c2ccc(-c3ccc(N4C=NN(C=O)CC4)nc3)c(F)c2)C(=O)O1` [Compound 1], the MIC90 is 0.5 µg/mL (≈ 1.14 µM) in the assay on Enterococcus faecalis (setting [9]); 0.25 µg/mL (≈ 0.568 µM) in [1] (setting [10]); 2 µg/mL (≈ 4.54 µM) in assay [2] (setting [11]); 0.5 µg/mL (≈ 1.14 µM) in assay [3] (setting [12]); 0.5 µg/mL (≈ 1.14 µM) in the assay on Enterococcus faecium (setting [13]); 0.5 µg/mL (≈ 1.14 µM) with Staphylococcus aureus (setting [14]). The MIC90 in assay [4] (setting [15]) was determined as 2 µg/mL (≈ 4.54 µM); in [5] (setting [16]) it was 1 µg/mL (≈ 2.27 µM); in assay [6] (setting [17]), 2 µg/mL (≈ 4.54 µM); with Moraxella catarrhalis (setting [18]) it was 2 µg/mL (≈ 4.54 µM); in assay [7] (setting [19]) it was 0.5 µg/mL (≈ 1.14 µM); in assay [8] (setting [20]) it was 1 µg/mL (≈ 2.27 µM).

On to `C#CCN1CCN(c2ccc(-c3ccc(N4C[C@H](CNC(C)=O)OC4=O)cc3F)cn2)C=N1` [Compound 8], for which the MIC90 stood at 0.5 µg/mL (≈ 1.11 µM) in the assay on Enterococcus faecalis (Enterococcus faecalis); 0.5 µg/mL (≈ 1.11 µM) in assay [1] (Staphylococcus epidermidis); 4 µg/mL (≈ 8.88 µM) in assay [2] (Enterococcus faecium); 1 µg/mL (≈ 2.22 µM) in assay [3] (Enterococcus faecalis); 1 µg/mL (≈ 2.22 µM) in the assay on Enterococcus faecium (Enterococcus faecium); 0.25 µg/mL (≈ 0.555 µM) against Staphylococcus aureus (Staphylococcus aureus). For the same compound, the MIC90 in assay [4] (Enterococcus faecalis) turned out to be 4 µg/mL (≈ 8.88 µM); in assay [5] (Staphylococcus epidermidis) it was 1 µg/mL (≈ 2.22 µM); in assay [6] (Enterococcus faecium) it was 4 µg/mL (≈ 8.88 µM); against Moraxella catarrhalis (Moraxella catarrhalis), 2 µg/mL (≈ 4.44 µM); in [7] (Enterococcus faecium), 0.5 µg/mL (≈ 1.11 µM); in assay [8] (Staphylococcus aureus), 1 µg/mL (≈ 2.22 µM).

Consider `CCN1CCN(c2ccc(-c3ccc(N4C[C@H](CNC(C)=O)OC4=O)cc3F)cn2)C=N1` [Compound 4], for which the MIC90 with Enterococcus faecalis (Enterococcus faecalis) stood at 0.5 µg/mL (≈ 1.14 µM); in [1] (Staphylococcus epidermidis), 0.5 µg/mL (≈ 1.14 µM); in assay [2] (Enterococcus faecium), 2 µg/mL (≈ 4.54 µM); in assay [3] (Enterococcus faecalis), 0.5 µg/mL (≈ 1.14 µM); against Enterococcus faecium (Enterococcus faecium), 0.5 µg/mL (≈ 1.14 µM); in the assay with Staphylococcus aureus (Staphylococcus aureus) it was 0.5 µg/mL (≈ 1.14 µM). Further, the MIC90 in assay [4] (Enterococcus faecalis) came out at 2 µg/mL (≈ 4.54 µM); in assay [5] (Staphylococcus epidermidis), 1 µg/mL (≈ 2.27 µM); in assay [6] (Enterococcus faecium) it was 2 µg/mL (≈ 4.54 µM); in the assay on Moraxella catarrhalis (Moraxella catarrhalis), 2 µg/mL (≈ 4.54 µM); in [7] (Enterococcus faecium), 0.5 µg/mL (≈ 1.14 µM); in [8] (Staphylococcus aureus), 1 µg/mL (≈ 2.27 µM).

Turning to `CC(=O)NC[C@H]1CN(c2ccc(-c3ccc(N4C=NN(C(N)=O)CC4)nc3)c(F)c2)C(=O)O1` [Compound 17], the MIC90 was 0.25 µg/mL (≈ 0.549 µM) against Enterococcus faecalis (Enterococcus faecalis); 0.25 µg/mL (≈ 0.549 µM) in assay [1] (Staphylococcus epidermidis); 2 µg/mL (≈ 4.39 µM) in [2] (Enterococcus faecium); 0.25 µg/mL (≈ 0.549 µM) in [3] (Enterococcus faecalis); 0.25 µg/mL (≈ 0.549 µM) against Enterococcus faecium (Enterococcus faecium); 0.125 µg/mL (≈ 0.274 µM) against Staphylococcus aureus (Staphylococcus aureus). The MIC90 in assay [4] (Enterococcus faecalis) was found to be 1 µg/mL (≈ 2.2 µM); in assay [5] (Staphylococcus epidermidis), 0.5 µg/mL (≈ 1.1 µM); in [6] (Enterococcus faecium), 2 µg/mL (≈ 4.39 µM); in the assay on Moraxella catarrhalis (Moraxella catarrhalis), 2 µg/mL (≈ 4.39 µM); in assay [7] (Enterococcus faecium), 0.25 µg/mL (≈ 0.549 µM); in assay [8] (Staphylococcus aureus), 0.5 µg/mL (≈ 1.1 µM).

Take `CC(=O)NC[C@H]1CN(c2ccc(-c3ccc(N4CCN(C=O)C=N4)nc3)c(F)c2)C(=O)O1` [Compound 52]: the MIC90 was 0.5 µg/mL (≈ 1.14 µM) in the assay on Enterococcus faecalis (setting [9]); 0.25 µg/mL (≈ 0.568 µM) in assay [1] (setting [10]); 1 µg/mL (≈ 2.27 µM) in assay [2] (setting [11]); 0.5 µg/mL (≈ 1.14 µM) in assay [3] (setting [12]); 0.5 µg/mL (≈ 1.14 µM) in the assay on Enterococcus faecium (setting [13]); 0.25 µg/mL (≈ 0.568 µM) with Staphylococcus aureus (setting [14]). Further, the MIC90 amounted to 1 µg/mL (≈ 2.27 µM) in assay [4] (setting [15]); 0.5 µg/mL (≈ 1.14 µM) in [5] (setting [16]); 1 µg/mL (≈ 2.27 µM) in assay [6] (setting [17]); 4 µg/mL (≈ 9.08 µM) with Moraxella catarrhalis (setting [18]); 0.5 µg/mL (≈ 1.14 µM) in assay [7] (setting [19]); 0.5 µg/mL (≈ 1.14 µM) in assay [8] (setting [20]).

Take `O=C1O[C@@H](COc2ccon2)CN1c1ccc(-c2ccc(C3=NOCCN3)nc2)c(F)c1` [Compound 68]: the MIC90 was 1 µg/mL (≈ 2.28 µM) with Enterococcus faecalis (strain 5, E. faecalis); 1 µg/mL (≈ 2.28 µM) in assay [1] (strain 3, S. epidermidis); more than 128 µg/mL in assay [2] (strain 11, E. faecium VanA LR); 2 µg/mL (≈ 4.55 µM) in assay [3] (strain 6, E. faecalis VanA); 0.25 µg/mL (≈ 0.569 µM) in the assay with Enterococcus faecium (strain 8, E. faecium); 0.5 µg/mL (≈ 1.14 µM) against Staphylococcus aureus (strain 1, S. aureus). The MIC90 in [4] (strain 7, E. faecalis VanA LR) is more than 128 µg/mL; in [5] (strain 4, S. epidermidis MR) it was 2 µg/mL (≈ 4.55 µM); in [6] (strain 10, E. faecium VanA LR), more than 128 µg/mL; in the assay with Moraxella catarrhalis (strain 12, M. catarrhalis) it was more than 128 µg/mL; in assay [7] (strain 9, E. faecium VanA) it was 1 µg/mL (≈ 2.28 µM); in [8] (strain 2, S. aureus MR) it was 1 µg/mL (≈ 2.28 µM).

For the origin of these results see patent US8846669B2, “Oxazolidinone derivative and medical composition containing same” (Legochem Biosciences, Inc., priority 2011, dated 2014).
